Paper PMC11475289, “Synthetically accessible de novo design using reaction vectors: Application to PARP1 inhibitors” (Molecular Informatics, 2024)
Where two headings read alike, the source gives them in different places.

Columns and labels:
full-length human PARP1 = biological target: T1, full-length human PARP1 (Homo sapiens, UniProt P09874); experiment: PARP1 enzymatic assay (homogeneous NAD+ consumption assay); type: biochemical; details: 5 nM PARP1, 500 nM NAD+, 30 min
T1 construct: Briefly, full‐length human PARP1 was produced in E. coli Rosetta2 (DE3); made in house; host or cells: E. coli Rosetta2 (DE3)
Description: PARP1 was expressed and purified as described in the literature. Briefly, full‐length human PARP1 was produced in E. coli Rosetta2 (DE3). The cells were harvested by centrifugation, and re‐suspended in lysis buffer containing 50 mM HEPES pH 8.0, 500 mM NaCl, 10 % glycerol, 0.5 mM TCEP and 10 mM imidazole. The sample was lysed using sonication in the presence of DNAse1 and 3‐aminobenzamide, centrifuged at 18,000 rpm for 1 h and the supernatant was filtered. The clarified sample was loaded to a HiTrap^TM IMAC column (Cytiva), washed with lysis buffer, then with a similar buffer containing 1 M NaCl, and finally with lysis buffer containing 25 mM imidazole before eluting the protein with 500 mM imidazole. The eluted sample was then diluted to reduce NaCl concentration to 250 mM, and loaded to a HiTrap Heparin column (Cytiva). The column was washed with 50 mM HEPES, 250 mM NaCl, 10 % glycerol, 1 mM EDTA, 0.1 mM TCEP, pH 7.5. and the sample was eluted using a gradient with a similar buffer containing 1 M NaCl. Fractions were analyzed by SDS‐PAGE and those containing protein were pooled and concentrated before aliquoting and stored at −70 °C.
IC50 was determined using homogeneous NAD^+ consumption assay. 5 nM PARP1 was incubated with each compound in log half dilution series for 30 min in 50 mM Tris pH 8.0, 5 mM MgCl2, 0.2 mg mL^−1 BSA, 10 μg mL^−1 activated DNA and 500 nM NAD^+. The reactions were performed in quadruplicates and resulting IC50 curves were fitted to a sigmoidal dose‐response curve (four variables) using GraphPad Prism version 8.02. Each experiment was repeated three times from which pIC50±SEM was calculated. Compounds with IC50 above 1 μM were measured only once.

[1] = PAMPA BBB permeability (brain polar lipid coated filter); type: in vitro ADME; details: for MR (membrane retention): pH 7.4, 5 h; for Papp at 5 h, 500 μM: PAMPA
Description: The donor solution (150 μL) was then added to each well of the filter plate. 300 μL of the solution (50 % DMSO in phosphate buffer) were added to each well of the acceptor plate. The sandwich plate was assembled and incubated for 5 h at room temperature. After the incubation time, plates were separated, samples were taken from both the donor and acceptor wells, and the compound concentration was measured by UV/LC–MS. All compounds were tested in three independent experiments. […] (3) Papp=VD×VA/VD+VAAt-ln(1-r)
Equation (3): Experimental apparent permeability (Papp) calculation as described in the literature modified to yield values in cm s^−1 [67, 68]. […] Drug concentration is estimated by using the peak area integration. (4) %MR=[r-D+A]/Eq×100
Equation (4): Membrane retention calculation: r is the ratio between drug concentration in the acceptor and equilibrium solutions. D, A, and Eq represent the drug concentration in the donor, acceptor, and equilibrium solutions, respectively.

[2] = pH 7.4, pH 7.4, donor 500 μM, 5 h, room temperature, read-out: PAMPA BBB Papp

T1 sequence (P09874 whole entry): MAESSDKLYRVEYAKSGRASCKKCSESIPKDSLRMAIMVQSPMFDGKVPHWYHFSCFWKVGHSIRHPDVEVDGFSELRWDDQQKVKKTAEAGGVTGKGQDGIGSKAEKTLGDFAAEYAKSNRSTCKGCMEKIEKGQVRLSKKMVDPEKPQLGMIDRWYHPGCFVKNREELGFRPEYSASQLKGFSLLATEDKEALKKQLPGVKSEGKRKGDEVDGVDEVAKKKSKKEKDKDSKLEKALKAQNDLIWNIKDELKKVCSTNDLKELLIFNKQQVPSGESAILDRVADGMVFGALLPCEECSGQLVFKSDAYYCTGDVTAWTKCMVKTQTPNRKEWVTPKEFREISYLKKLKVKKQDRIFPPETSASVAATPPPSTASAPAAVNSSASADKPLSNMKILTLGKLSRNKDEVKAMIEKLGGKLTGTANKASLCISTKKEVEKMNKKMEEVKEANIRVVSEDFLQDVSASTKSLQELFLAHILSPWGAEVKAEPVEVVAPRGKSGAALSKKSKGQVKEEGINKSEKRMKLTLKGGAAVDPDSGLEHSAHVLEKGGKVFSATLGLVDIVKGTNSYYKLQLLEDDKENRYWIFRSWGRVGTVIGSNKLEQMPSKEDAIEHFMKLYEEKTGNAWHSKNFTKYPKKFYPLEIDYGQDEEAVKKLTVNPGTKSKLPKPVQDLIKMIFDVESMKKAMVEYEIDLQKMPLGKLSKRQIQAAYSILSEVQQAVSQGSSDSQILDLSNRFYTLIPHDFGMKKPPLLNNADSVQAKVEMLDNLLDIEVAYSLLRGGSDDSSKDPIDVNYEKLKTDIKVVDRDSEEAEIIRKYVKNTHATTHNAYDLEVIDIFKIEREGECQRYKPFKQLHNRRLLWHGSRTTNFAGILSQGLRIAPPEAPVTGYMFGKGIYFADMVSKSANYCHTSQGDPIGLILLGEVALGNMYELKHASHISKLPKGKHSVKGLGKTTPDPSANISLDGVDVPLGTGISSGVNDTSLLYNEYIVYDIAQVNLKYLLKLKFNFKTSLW

Row | IC50 (result in words) (full-length human PARP1) | IC50 (full-length human PARP1; averaged on three replicas) | MR (membrane retention) ([1]; PAMPA BBB) | SMILES | further results
1 | No inhibition | – | – | Cc1cc(CN)ccc1-c1cc(F)c2c(c1)C(=O)NCC2.Cl [Row528 (I), 7‐[4‐(Aminomethyl)‐2‐methylphenyl]‐5‐fluoro‐1,2,3,4‐tetrahydroisoquinolin‐1‐one hydrochloride] | –
2 | No inhibition | – | – | C#CCCNCc1ccc(-c2cc(F)c3c(c2)C(=O)NCC3)c(C)c1 [Row528, 7‐(4‐{[(But‐3‐yn‐1‐yl)amino]methyl}‐2‐methylphenyl)‐5‐fluoro‐1,2,3,4‐tetrahydroisoquinolin‐1‐one] | –
3 | No inhibition | – | – | Cc1cc(COC(=O)c2c(C)ccc3[nH]ncc23)ccc1C(=O)N1CCOCC1 [Row26, [3‐Methyl‐4‐(morpholine‐4‐carbonyl)phenyl]methyl 5‐methyl‐1H‐indazole‐4‐carboxylate] | –
4 | – | – | 0.8% | Cc1cc2cc(C(=O)OCc3ccc(C(=O)N4CCOCC4)c(C)c3)ccc2c(=O)[nH]1 [Row514, [3‐Methyl‐4‐(morpholine‐4‐carbonyl)phenyl]methyl 3‐methyl‐1‐oxo‐1,2‐dihydroisoquinoline‐6‐carboxylate] | BBB permeability relative to reference Olaparib ([1]; PAMPA BBB, ratio of Papp): approximately 20 times; Papp at 5 h, 500 μM [1, 2]: 0.325 ×10⁻⁶ cm/s; IC50 (full-length human PARP1; IC50 above 1 μM measured once): 19000 nM

Continued, molecule first:

Row | SMILES | IC50 (result in words) (full-length human PARP1) | IC50 (full-length human PARP1; averaged on three replicas) | MR (membrane retention) ([1]; PAMPA BBB) | further results
5 | CCCC(O)c1ccc(-c2n[nH]c(=O)c3ccccc23)cc1 (stereo not drawn) [Row86, 4‐[4‐(1‐Hydroxybutyl)phenyl]‐1,2‐dihydrophthalazin‐1‐one] | sub‐micromolar | 755 nM | – | –
6 | CC1CC1C(=O)c1ccc(-c2n[nH]c(=O)c3ccccc23)cc1 (stereo not drawn) [Row745(2), 4‐[4‐(2‐Methylcyclopropanecarbonyl)phenyl]‐1,2‐dihydrophthalazin‐1‐one] | sub‐micromolar | 908 nM | 3.6% | Papp at 5 h, 500 μM ([1]; pH 7.4, PAMPA BBB, read-out: BBB permeability (diffusion)): 2.1 ×10⁻⁶ cm/s; Papp at 5 h, 500 μM [1, 2]: 2.1 ×10⁻⁶ cm/s
7 | O=c1[nH]nc(-c2ccc(Br)cc2)c2ccccc12 [Row86 (I), 4‐(4‐bromophenyl)‐2H‐phthalazin‐1‐one] | sub‐micromolar | 395 nM | – | –
8 | Cc1ccc(Cn2cc(CCN)c3c(C#N)cccc32)cc1 [Row847, 3‐(2‐Aminoethyl)‐1‐[(4‐methylphenyl)methyl]‐1H‐indole‐4‐carbonitrile] | – | – | – | IC50 (full-length human PARP1; IC50 above 1 μM measured once): 16000 nM
9 | O=C(c1cc(Cc2n[nH]c(=O)c3ccccc23)ccc1F)N1CCN(C(=O)C2CC2)CC1 [Olaparib, reference compound] | – | – | 3.0% | –
